From patent US11566057B2, “Long-acting co-agonists of the glucagon and GLP-1 receptors” (Merck Sharp & Dohme Corp., priority 2017, dated 2023)
Read-outs that look alike come from different tables or passages of the source. Numbered stars: 1 amine (or outer) side, 2 acyl side, 3 side chain; on linkers, the order of the positions; unused ones are H or OH. Square brackets hold non-standard residues; d marks the D form. Side chains are listed from the residue outwards. Peptide text beside a SMILES is read from it. * marks the point of attachment. C18 diacid = O=C(O)CCCCCCCCCCCCCCCCC(=O)*; C16 diacid = O=C(O)CCCCCCCCCCCCCCC(=O)*; γGlu = O=C(O)[C@H](CCC(=O)[*:2])N[*:1]; Met(O2) = CS(=O)(=O)CC[C@H](N)C(=O)O; αMeD = C[C@](N)(CC(=O)O)C(=O)O; αMeS = C[C@](N)(CO)C(=O)O; AEEA = NCCOCCOCC(=O)O; Aib = CC(C)(N)C(=O)O

How the values were obtained:
human GCGR = molecular target: T1, human GCGR (Homo sapiens, UniProt P47871); assay: cAMP activity assay at the Glucagon receptor (GCGR); type: cell-based; details: for hGCGR/hGLP1R (hTone): ratio of GCGR EC50 to GLP1R EC50
T1 construct: expressed in transfected cells; growth medium holds Blasticidin and Hygromycin
How it was run: (§1)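 Peptides serially diluted from DMSO (10 points) and added to frozen-stock cells bearing human GLP1R (10,000 cells/well) or GCGR (30,000 cells/well), 1 h at RT, dark. EC50 by four-parameter logistic fit of HitHunter cAMPXS luminescence, read following overnight RT incubation.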

human GLP1R = molecular target: T2, human GLP1R (Homo sapiens, UniProt P43220); assay: cAMP activity assay at the GLP-1 receptor (GLP1R); type: cell-based
T2 construct: expressed in transfected cells; growth medium holds Blasticidin and Hygromycin
How it was run: as §1

[1] = cells expressing human GLP1R, cAMP production, buffer with or without 20% human serum (not stated which), read-out: GLP1R EC50 human
[2] = cells expressing human GCGR, cAMP production, buffer with or without 20% human serum (not stated which), read-out: GCGR EC50 human
[3] = summary statement: EC50 at each of the glucagon and GLP-1 receptors, read-out: EC50 at the glucagon receptor
[4] = summary statement: EC50 at each of the glucagon and GLP-1 receptors, read-out: EC50 at the GLP-1 receptor

T2 sequence (P43220 24-463): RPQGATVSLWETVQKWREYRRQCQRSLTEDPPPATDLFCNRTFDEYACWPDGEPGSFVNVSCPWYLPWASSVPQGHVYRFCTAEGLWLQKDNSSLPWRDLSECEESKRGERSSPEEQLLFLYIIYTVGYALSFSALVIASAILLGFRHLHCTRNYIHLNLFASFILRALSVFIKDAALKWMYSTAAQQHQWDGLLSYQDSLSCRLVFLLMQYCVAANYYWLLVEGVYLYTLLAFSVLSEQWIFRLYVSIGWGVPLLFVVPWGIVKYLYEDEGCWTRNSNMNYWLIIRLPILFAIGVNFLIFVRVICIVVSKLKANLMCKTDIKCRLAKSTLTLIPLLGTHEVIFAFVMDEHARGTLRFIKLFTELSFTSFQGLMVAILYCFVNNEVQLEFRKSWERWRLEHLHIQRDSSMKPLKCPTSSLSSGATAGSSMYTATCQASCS
T1 sequence (P47871 26-477): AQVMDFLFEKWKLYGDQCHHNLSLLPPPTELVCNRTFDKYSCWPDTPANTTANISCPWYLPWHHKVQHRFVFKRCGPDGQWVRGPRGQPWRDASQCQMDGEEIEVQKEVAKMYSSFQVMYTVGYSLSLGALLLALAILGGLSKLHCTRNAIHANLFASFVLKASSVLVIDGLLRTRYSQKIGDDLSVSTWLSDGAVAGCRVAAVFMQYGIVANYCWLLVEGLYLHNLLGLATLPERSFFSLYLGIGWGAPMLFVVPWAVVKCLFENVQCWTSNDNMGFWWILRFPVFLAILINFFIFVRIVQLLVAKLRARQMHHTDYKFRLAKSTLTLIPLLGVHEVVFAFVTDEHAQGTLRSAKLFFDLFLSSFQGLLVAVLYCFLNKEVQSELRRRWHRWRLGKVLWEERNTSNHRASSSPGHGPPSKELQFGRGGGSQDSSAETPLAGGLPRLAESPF

Row | hGCGR/hGLP1R (hTone) (human GCGR) | EC50 (human GLP1R; [1]) [nM] | EC50 (human GCGR; [2]) [nM] | EC50 (human GCGR; [3]) [nM] | EC50 (human GLP1R; [4]) [nM] | SMILES
1 | <0.01 | > 5 | – | – | – | CC(C)C[C@H](NC(=O)[C@H](Cc1c[nH]c2ccccc12)NC(=O)[C@H](CCC(N)=O)NC(=O)[C@@H](NC(=O)[C@H](Cc1ccccc1)NC(=O)[C@H](CC(=O)O)NC(=O)[C@H](CCCCNC(=O)COCCOCCNC(=O)COCCOCCNC(=O)CC[C@H](NC(=O)CCCCCCCCCCCCCCCCC(=O)O)C(=O)O)NC(=O)[C@H](C)NC(=O)[C@H](C)NC(=O)[C@H](CCCNC(=N)N)NC(=O)[C@H](C)NC(=O)[C@](C)(CC(=O)O)NC(=O)[C@H](CC(C)C)NC(=O)[C@H](Cc1ccc(O)cc1)NC(=O)[C@H](CCCCN)NC(=O)[C@H](CO)NC(=O)[C@H](Cc1ccc(O)cc1)NC(=O)[C@H](CC(=O)O)NC(=O)[C@H](CO)NC(=O)[C@@H](NC(=O)[C@H](Cc1ccccc1)NC(=O)[C@@H](NC(=O)CNC(=O)[C@H](CCC(N)=O)NC(=O)C(C)(C)NC(=O)[C@@H](N)Cc1c[nH]cn1)[C@@H](C)O)[C@@H](C)O)C(C)C)C(=O)N[C@@H](CCS(C)(=O)=O)C(=O)N[C@@](C)(CC(=O)O)C(=O)N[C@H](C(N)=O)[C@@H](C)O [TP610] (H-H[Aib]QGTFTSDYSKYL[αMeD]ARAAK([AEEA-AEEA-γGlu-C18 diacid])DFVQWL[Met(O2)][αMeD]T-NH2; N-terminus assumed)
2 | <0.02 | > 5 | 0.2 | – | – | CC(C)C[C@H](NC(=O)[C@H](Cc1ccc(O)cc1)NC(=O)[C@H](CCCCN)NC(=O)[C@H](CO)NC(=O)[C@H](Cc1ccc(O)cc1)NC(=O)[C@H](CC(=O)O)NC(=O)[C@H](CO)NC(=O)[C@@H](NC(=O)[C@H](Cc1ccccc1)NC(=O)[C@@H](NC(=O)CNC(=O)[C@H](CCC(N)=O)NC(=O)C(C)(C)NC(=O)[C@@H](N)Cc1c[nH]cn1)[C@@H](C)O)[C@@H](C)O)C(=O)N[C@@H](CC(=O)O)C(=O)N[C@@H](C)C(=O)N[C@@H](CCCNC(=N)N)C(=O)N[C@@H](C)C(=O)N[C@@H](C)C(=O)N[C@@H](CCCCNC(=O)COCCOCCNC(=O)COCCOCCNC(=O)CC[C@H](NC(=O)CCCCCCCCCCCCCCCCC(=O)O)C(=O)O)C(=O)N[C@@](C)(CC(=O)O)C(=O)N[C@@H](Cc1ccccc1)C(=O)N[C@H](C(=O)N[C@@H](CCC(N)=O)C(=O)N[C@@H](Cc1c[nH]c2ccccc12)C(=O)N[C@@H](CC(C)C)C(=O)N[C@@H](CCS(C)(=O)=O)C(=O)N[C@@](C)(CC(=O)O)C(=O)N[C@H](C(N)=O)[C@@H](C)O)C(C)C [TP611] (H-H[Aib]QGTFTSDYSKYLDARAAK([AEEA-AEEA-γGlu-C18 diacid])[αMeD]FVQWL[Met(O2)][αMeD]T-NH2)
3 | <0.41 | 4.95 | – | < 5 | < 5 | CC(C)C[C@H](NC(=O)[C@H](Cc1c[nH]c2ccccc12)NC(=O)[C@H](CCC(N)=O)NC(=O)[C@@H](NC(=O)[C@H](Cc1ccccc1)NC(=O)[C@](C)(CC(=O)O)NC(=O)[C@H](CCCCNC(=O)COCCOCCNC(=O)COCCOCCNC(=O)CC[C@H](NC(=O)CCCCCCCCCCCCCCCCC(=O)O)C(=O)O)NC(=O)[C@H](C)NC(=O)[C@H](C)NC(=O)[C@H](CCCNC(=N)N)NC(=O)[C@H](C)NC(=O)[C@](C)(CC(=O)O)NC(=O)[C@H](CC(C)C)NC(=O)[C@H](Cc1ccc(O)cc1)NC(=O)[C@H](CCCCN)NC(=O)[C@H](CO)NC(=O)[C@H](Cc1ccc(O)cc1)NC(=O)[C@H](CC(=O)O)NC(=O)[C@H](CO)NC(=O)[C@@H](NC(=O)[C@H](Cc1ccccc1)NC(=O)[C@@H](NC(=O)CNC(=O)[C@H](CCC(N)=O)NC(=O)C(C)(C)NC(=O)[C@@H](N)Cc1c[nH]cn1)[C@@H](C)O)[C@@H](C)O)C(C)C)C(=O)N[C@@H](CCS(C)(=O)=O)C(=O)N[C@@](C)(CC(=O)O)C(=O)N[C@H](C(N)=O)[C@@H](C)O [TP612] (H-H[Aib]QGTFTSDYSKYL[αMeD]ARAAK([AEEA-AEEA-γGlu-C18 diacid])[αMeD]FVQWL[Met(O2)][αMeD]T-NH2; N-terminus assumed)
4 | 0.6 | – | 0.86 | < 5 | < 5 | CC(C)C[C@H](NC(=O)[C@H](Cc1ccc(O)cc1)NC(=O)[C@H](CCCCN)NC(=O)[C@H](CO)NC(=O)[C@H](Cc1ccc(O)cc1)NC(=O)[C@H](CC(=O)O)NC(=O)[C@H](CO)NC(=O)[C@@H](NC(=O)[C@H](Cc1ccccc1)NC(=O)[C@@H](NC(=O)CNC(=O)[C@H](CCC(N)=O)NC(=O)[C@](C)(CO)NC(=O)[C@@H](N)Cc1c[nH]cn1)[C@@H](C)O)[C@@H](C)O)C(=O)N[C@@H](CC(=O)O)C(=O)N[C@@H](C)C(=O)N[C@@H](CCCNC(=N)N)C(=O)N[C@@H](C)C(=O)N[C@@H](C)C(=O)N[C@@H](CCCCNC(=O)COCCOCCNC(=O)COCCOCCNC(=O)CC[C@H](NC(=O)CCCCCCCCCCCCCCC(=O)O)C(=O)O)C(=O)N[C@@H](CC(=O)O)C(=O)N[C@@H](Cc1ccccc1)C(=O)N[C@H](C(=O)N[C@@H](CCC(N)=O)C(=O)N[C@@H](Cc1c[nH]c2ccccc12)C(=O)N[C@@H](CC(C)C)C(=O)N[C@@H](CCS(C)(=O)=O)C(=O)N[C@@](C)(CC(=O)O)C(=O)N[C@H](C(N)=O)[C@@H](C)O)C(C)C [TP614] (H-H[αMeS]QGTFTSDYSKYLDARAAK([AEEA-AEEA-γGlu-C16 diacid])DFVQWL[Met(O2)][αMeD]T-NH2; N-terminus assumed)
5 | 0.6 | – | – | < 5 | < 5 | CC(C)C[C@H](NC(=O)[C@H](Cc1ccc(O)cc1)NC(=O)[C@H](CCCCN)NC(=O)[C@H](CO)NC(=O)[C@H](Cc1ccc(O)cc1)NC(=O)[C@H](CC(=O)O)NC(=O)[C@H](CO)NC(=O)[C@@H](NC(=O)[C@H](Cc1ccccc1)NC(=O)[C@@H](NC(=O)CNC(=O)[C@H](CCC(N)=O)NC(=O)[C@](C)(CO)NC(=O)[C@@H](N)Cc1c[nH]cn1)[C@@H](C)O)[C@@H](C)O)C(=O)N[C@@H](CC(=O)O)C(=O)N[C@@H](C)C(=O)N[C@@H](CCCNC(=N)N)C(=O)N[C@@H](C)C(=O)N[C@@H](C)C(=O)N[C@@H](CCC(N)=O)C(=O)N[C@@H](CCCCNC(=O)COCCOCCNC(=O)COCCOCCNC(=O)CC[C@H](NC(=O)CCCCCCCCCCCCCCC(=O)O)C(=O)O)C(=O)N[C@@H](Cc1ccccc1)C(=O)N[C@H](C(=O)N[C@@H](CCC(N)=O)C(=O)N[C@@H](Cc1c[nH]c2ccccc12)C(=O)N[C@@H](CC(C)C)C(=O)N[C@@H](CCS(C)(=O)=O)C(=O)N[C@@](C)(CC(=O)O)C(=O)N[C@H](C(N)=O)[C@@H](C)O)C(C)C [TP615] (H-H[αMeS]QGTFTSDYSKYLDARAAQK([AEEA-AEEA-γGlu-C16 diacid])FVQWL[Met(O2)][αMeD]T-NH2)
6 | 0.7 | – | – | < 5 | < 5 | CC(C)C[C@H](NC(=O)[C@H](Cc1ccc(O)cc1)NC(=O)[C@H](CCCCN)NC(=O)[C@H](CO)NC(=O)[C@H](Cc1ccc(O)cc1)NC(=O)[C@H](CC(=O)O)NC(=O)[C@H](CO)NC(=O)[C@@H](NC(=O)[C@H](Cc1ccccc1)NC(=O)[C@@H](NC(=O)CNC(=O)[C@H](CCC(N)=O)NC(=O)[C@](C)(CO)NC(=O)[C@@H](N)Cc1c[nH]cn1)[C@@H](C)O)[C@@H](C)O)C(=O)N[C@@H](CC(=O)O)C(=O)N[C@@H](C)C(=O)N[C@@H](CCCNC(=N)N)C(=O)N[C@@H](C)C(=O)N[C@@H](C)C(=O)N[C@@H](CCCCNC(=O)COCCOCCNC(=O)COCCOCCNC(=O)CC[C@H](NC(=O)CCCCCCCCCCCCCCCCC(=O)O)C(=O)O)C(=O)N[C@@H](CC(=O)O)C(=O)N[C@@H](Cc1ccccc1)C(=O)N[C@H](C(=O)N[C@@H](CCC(N)=O)C(=O)N[C@@H](Cc1c[nH]c2ccccc12)C(=O)N[C@@H](CC(C)C)C(=O)N[C@@H](CCS(C)(=O)=O)C(=O)N[C@@](C)(CC(=O)O)C(=O)N[C@H](C(N)=O)[C@@H](C)O)C(C)C [TP616] (H-H[αMeS]QGTFTSDYSKYLDARAAK([AEEA-AEEA-γGlu-C18 diacid])DFVQWL[Met(O2)][αMeD]T-NH2; N-terminus assumed)
7 | 0.8 | 0.76 | – | < 5 | < 5 | CC(C)C[C@H](NC(=O)[C@H](Cc1ccc(O)cc1)NC(=O)[C@H](CCCCN)NC(=O)[C@H](CO)NC(=O)[C@H](Cc1ccc(O)cc1)NC(=O)[C@H](CC(=O)O)NC(=O)[C@H](CO)NC(=O)[C@@H](NC(=O)[C@H](Cc1ccccc1)NC(=O)[C@@H](NC(=O)CNC(=O)[C@H](CCC(N)=O)NC(=O)[C@](C)(CO)NC(=O)[C@@H](N)Cc1c[nH]cn1)[C@@H](C)O)[C@@H](C)O)C(=O)N[C@@H](CC(=O)O)C(=O)N[C@@H](C)C(=O)N[C@@H](CCCNC(=N)N)C(=O)N[C@@H](C)C(=O)N[C@@H](C)C(=O)N[C@@H](CCC(N)=O)C(=O)N[C@@H](CCCCNC(=O)COCCOCCNC(=O)COCCOCCNC(=O)CC[C@H](NC(=O)CCCCCCCCCCCCCCCCC(=O)O)C(=O)O)C(=O)N[C@@H](Cc1ccccc1)C(=O)N[C@H](C(=O)N[C@@H](CCC(N)=O)C(=O)N[C@@H](Cc1c[nH]c2ccccc12)C(=O)N[C@@H](CC(C)C)C(=O)N[C@@H](CCS(C)(=O)=O)C(=O)N[C@@](C)(CC(=O)O)C(=O)N[C@H](C(N)=O)[C@@H](C)O)C(C)C [TP617] (H-H[αMeS]QGTFTSDYSKYLDARAAQK([AEEA-AEEA-γGlu-C18 diacid])FVQWL[Met(O2)][αMeD]T-NH2)
